The text below walks through data of patent publication US10633371B2, “EZH2 inhibitors and uses thereof” (Dana-Farber Cancer Institute, Inc., priority 2016, dated 2020).

In one assay the target is EZH1 (Homo sapiens, UniProt Q92800). Nature of the assay: Inhibitory activity and time dependence against EZH1 (FIG. 2A). The class given is biochemical. To be noted: result in words. An excerpt: (§1) As depicted in FIG. 2A, Compounds EZ-40, EZ-49, EZ-51, EZ-52, EZ-53, and JQ-80 were profiled for inhibitory activity and time dependence against EZH1 and EZH2.
EZH1, sequence (Q92800 whole entry): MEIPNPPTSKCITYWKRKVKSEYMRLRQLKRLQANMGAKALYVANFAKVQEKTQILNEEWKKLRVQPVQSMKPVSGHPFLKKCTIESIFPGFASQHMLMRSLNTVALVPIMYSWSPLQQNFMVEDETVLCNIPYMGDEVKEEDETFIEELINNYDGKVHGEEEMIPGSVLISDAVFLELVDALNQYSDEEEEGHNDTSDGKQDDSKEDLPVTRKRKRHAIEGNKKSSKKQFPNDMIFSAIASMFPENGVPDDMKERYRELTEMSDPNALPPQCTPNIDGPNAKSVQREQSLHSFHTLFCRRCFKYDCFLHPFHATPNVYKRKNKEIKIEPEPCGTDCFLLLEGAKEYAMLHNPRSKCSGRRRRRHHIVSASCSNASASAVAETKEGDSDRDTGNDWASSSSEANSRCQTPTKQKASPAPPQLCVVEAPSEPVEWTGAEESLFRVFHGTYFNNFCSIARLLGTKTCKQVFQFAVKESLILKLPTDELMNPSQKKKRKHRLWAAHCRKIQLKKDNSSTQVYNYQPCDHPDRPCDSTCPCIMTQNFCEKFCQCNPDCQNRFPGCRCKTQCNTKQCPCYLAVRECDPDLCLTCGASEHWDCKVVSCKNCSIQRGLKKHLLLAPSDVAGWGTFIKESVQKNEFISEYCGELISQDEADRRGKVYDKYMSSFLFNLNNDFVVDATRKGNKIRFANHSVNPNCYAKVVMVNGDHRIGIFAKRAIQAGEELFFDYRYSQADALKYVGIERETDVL
EZH1, sequence (O75530 whole entry partner): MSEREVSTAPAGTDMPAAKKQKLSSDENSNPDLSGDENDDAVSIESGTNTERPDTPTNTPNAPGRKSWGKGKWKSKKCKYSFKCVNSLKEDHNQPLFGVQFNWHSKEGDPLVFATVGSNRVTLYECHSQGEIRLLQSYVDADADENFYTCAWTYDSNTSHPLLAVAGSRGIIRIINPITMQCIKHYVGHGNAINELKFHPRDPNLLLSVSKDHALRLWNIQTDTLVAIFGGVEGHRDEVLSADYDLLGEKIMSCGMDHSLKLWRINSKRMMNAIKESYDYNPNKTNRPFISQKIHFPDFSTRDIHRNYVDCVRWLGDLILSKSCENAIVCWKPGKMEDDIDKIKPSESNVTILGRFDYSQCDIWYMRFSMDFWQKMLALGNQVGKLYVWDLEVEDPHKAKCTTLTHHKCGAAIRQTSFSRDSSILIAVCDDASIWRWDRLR
EZH1, sequence (Q15022 whole entry partner): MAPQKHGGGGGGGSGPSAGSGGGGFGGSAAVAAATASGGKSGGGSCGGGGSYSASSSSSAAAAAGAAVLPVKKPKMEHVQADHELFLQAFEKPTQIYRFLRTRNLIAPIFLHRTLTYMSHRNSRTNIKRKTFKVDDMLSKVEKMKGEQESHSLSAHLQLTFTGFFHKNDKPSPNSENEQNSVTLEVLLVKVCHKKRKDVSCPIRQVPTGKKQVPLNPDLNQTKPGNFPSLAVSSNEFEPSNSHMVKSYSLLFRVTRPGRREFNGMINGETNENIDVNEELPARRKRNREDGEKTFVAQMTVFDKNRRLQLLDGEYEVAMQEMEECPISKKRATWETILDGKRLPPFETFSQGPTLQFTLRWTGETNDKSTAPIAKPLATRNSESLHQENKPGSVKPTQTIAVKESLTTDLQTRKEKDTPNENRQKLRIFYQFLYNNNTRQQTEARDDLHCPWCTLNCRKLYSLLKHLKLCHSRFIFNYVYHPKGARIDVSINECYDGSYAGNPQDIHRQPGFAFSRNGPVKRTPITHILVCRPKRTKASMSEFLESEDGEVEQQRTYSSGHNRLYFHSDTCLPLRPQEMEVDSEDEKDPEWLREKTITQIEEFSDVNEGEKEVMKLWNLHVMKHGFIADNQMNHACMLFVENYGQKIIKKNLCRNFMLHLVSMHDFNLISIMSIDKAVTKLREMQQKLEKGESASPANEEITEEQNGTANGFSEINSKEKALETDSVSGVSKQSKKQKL
In a further assay the target is EZH2 (Homo sapiens, UniProt Q15910). Nature of the assay: Inhibitory activity and time dependence against EZH2 (FIG. 2A). The class given is biochemical. The settings on record: result in words.
EZH2, sequence (Q15910 whole entry): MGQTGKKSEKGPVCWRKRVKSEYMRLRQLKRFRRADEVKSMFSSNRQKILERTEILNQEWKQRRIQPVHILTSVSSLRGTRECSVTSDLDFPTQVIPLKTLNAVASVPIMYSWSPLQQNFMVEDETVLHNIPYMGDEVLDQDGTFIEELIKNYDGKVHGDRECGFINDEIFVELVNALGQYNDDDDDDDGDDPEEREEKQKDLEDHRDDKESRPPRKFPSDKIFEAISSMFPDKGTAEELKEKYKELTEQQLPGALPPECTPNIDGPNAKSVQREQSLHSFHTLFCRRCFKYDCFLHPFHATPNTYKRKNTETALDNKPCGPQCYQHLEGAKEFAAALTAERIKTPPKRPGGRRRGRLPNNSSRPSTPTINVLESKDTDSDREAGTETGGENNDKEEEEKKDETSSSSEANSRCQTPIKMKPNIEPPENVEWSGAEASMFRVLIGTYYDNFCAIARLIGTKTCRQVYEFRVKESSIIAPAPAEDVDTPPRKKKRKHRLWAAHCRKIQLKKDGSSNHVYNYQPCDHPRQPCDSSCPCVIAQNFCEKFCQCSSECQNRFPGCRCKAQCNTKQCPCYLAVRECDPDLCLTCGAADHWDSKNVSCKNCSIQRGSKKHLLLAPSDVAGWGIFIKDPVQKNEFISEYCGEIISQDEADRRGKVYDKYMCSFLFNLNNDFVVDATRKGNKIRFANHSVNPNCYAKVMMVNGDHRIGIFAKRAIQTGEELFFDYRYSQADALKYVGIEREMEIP
EZH2, sequence (O75530 whole entry partner): as the sequence (O75530 whole entry partner) above
EZH2, sequence (Q15022 whole entry partner): as the sequence (Q15022 whole entry partner) above
Source text: as §1

Each structure is given as a SMILES string.

For the molecule `C=CC(=O)N(c1cc(-c2ccc(N3CCN(C)CC3)nc2)cc(C(=O)NCc2c(CCC)cc(C)[nH]c2=O)c1C)C1CCOCC1` [EZ-53], on EZH1, the inhibitory activity result is “high potency”, the mode of inhibition entry is recorded as “irreversible inhibitor” and the time dependence result is on record as “time dependency”. For the same molecule, on EZH2, the inhibitory activity result is reported as “high potency”, the mode of inhibition result is recorded as “irreversible inhibitor” and the time dependence entry is “time dependency”.
